Test results from patent publication US20110008888A1, “Novel Genetic Approaches to Reduce or Inhibit Tumorgenicity of Human Embryonic Stem Cells and Derivatives Following Transplantation” (The John Hopkins University, priority 2005, published 2011).
“Also recorded” adds a separate entry of the source. Where two headings read alike, the source gives them in different places.

Assays:
[1] = test system: hESCs; assay: Cell proliferation assay, hESCs (colony parameters after 6 days); assay type: cell-based, human; settings: for effect on proliferation of hESCs: dose-dependent, p<0.05
[2] = test system: delayed rectifier K+ currents (IKDR) in mESCs; assay: Whole-cell patch clamp, block of IKDR in undifferentiated mESCs; assay type: cell-based, mouse; settings: for IC50: whole-cell patch clamp, room temperature
[3] = test system: mESCs; assay: Cell proliferation assay, mESCs (viable cell count after 48 hours); assay type: cell-based, mouse; settings: for EC50: mESCs, cell number after 48 hours, read-out: half-effective concentration (EC50) for inhibition of mESC proliferation; for effect on proliferation of mESCs (words): dose-dependent, p<0.05
[4] = test system: IKDR in hESCs; assay: Whole-cell patch clamp, block of IKDR in undifferentiated hESCs; assay type: cell-based, human; settings: pluripotent hESCs (H1)
[5] = test system: ESCs; assay: Cytotoxic effects of K+ channel blockers on ESCs; settings: high concentrations

Nc1ccncc1 [4-AP, 4-aminopyridine]
effect on proliferation of hESCs [1]: significantly reduced | IC50 ([2]; undifferentiated mESCs): 550 ± 170 µM | EC50 ([3]; Mus musculus): 4000 ± 1800 µM | effect on proliferation of mESCs (words) [3]: significantly reduced

CC[N+](CC)(CC)CC [TEA]
IC50 [4]: 2100 ± 200 µM | effect on proliferation of hESCs [1]: significantly reduced | EC50 ([1]; hESCs, colony parameters after 6 days, read-out: EC50 for inhibition of hESC proliferation): 3800 ± 100 µM | IC50 ([2]; undifferentiated mESCs): 1400 ± 380 µM | effect on proliferation of mESCs (words) [3]: significantly reduced | effect on proliferation of mESCs (words) ([3]; listed as TEA+): significantly inhibited | EC50 [3]: 11900 ± 1200 µM

iberiotoxin [IBTX]
effect on proliferation of hESCs [1]: significantly reduced | IKDR component sensitive to blocker ([2]; mESCs, 100 nM IBTX): sensitive | current inhibition of IKDR in mESCs ([2]; undifferentiated mESCs, IBTX 100 nM, n=3): 33.2±12.7% | cytotoxic effects [5]: cytotoxic effects | effect on proliferation of mESCs (words) [3]: significantly reduced; also recorded: dose-dependently reduced
